Patent US20050042209A1, “MUC1 extracellular domain and cancer treatment compositions and methods derived therefrom” (priority 2000, published 2005)
Like-named read-outs stand apart in the source and are kept apart here.

What was measured:
MUC1 C-ter [1] = assay: Expression of MUC1 C-ter with CHX; assay type: cell-based, human
MUC1 C-ter [2] = assay: Mitochondrial localization of MUC1 C-ter (immunoblot of mitochondrial fractions); assay type: cell-based, human; conditions: HCT116/MUC1 or HCT116/MUC1(Y46F) cells; EGF 10 ng/ml
Protocol: Cell culture. Human HCT116 colon carcinoma cells (ATCC, Manassas, Va.) were cultured in Dulbecco's modified Eagle's medium/F12 with 10% heat-inactivated fetal bovine serum, 100 units/ml penicillin, […] streptomycin and 2 mM L-glutamine.
Cell transfections. HCT116 cells were transfected with pIRES-puro2, pIRESpuro2-MUC1 or pIRES-puro2-MUC1(Y46F) as described (Li et al., 2001a). SW480 cells were transfected with pIRES-puro2 or pIRES-puro2-MUC1. Stable transfectants were selected in the presence of 0.4 mg/ml puromycin (Calbiochem-Novabiochem, San Diego, Calif.). Two independent transfections were performed for each vector.
Immunoblot analysis. Lysates were prepared from subconfluent cells as described (Li et al., 2001a). Equal amounts of protein were separated by SDS-PAGE and transferred to nitrocellulose membranes. […] The immunocomplexes were detected with horseradish peroxidase-conjugated secondary antibodies and enhanced chemiluminescence (ECL, Amersham Biosciences, Piscataway, N.J.). Intensity of the signals was determined by densitometric scanning. […]
To extend these findings, MUC1 C-ter was expressed with a GFP tag at the N-terminus and assessed mitochondrial localization. […]

MUC1 [3] = assay: MUC1 induction by oxidative and genotoxic stress (immunoblot); conditions: available evidence; cells not given
Protocol: To determine whether MUC1 is induced in response to oxidative stress, MCF-7 cells were treated with hydrogen peroxide. Cell lysates were analyzed by immunoblotting with anti-DF3/MUC1 antibody. Lysates were prepared by suspending MCF-7 cells in lysis buffer (50 mM Tris, pH 7.6, 150 mM NaCl, 1 mM PMSF, 3 mM NaF, 1 mM sodium vandate, 1 mM DTT with protease inhibitors and either 1% NP-40 or 1% Brij-96) for 30 min. on ice. Lysates were cleared by centifugation and equal amounts of proteins were resolved by SDS-PAGE. Proteins were then transferred to nitrocellulose filters, blocked by incubation in 5% non-fat dry milk in PBS with 0.05% Tween-20 and probed with anti-MUC1 antibody (Pandey et al., 1995). Anti-actin was used as a control.
Similar studies were performed with genotoxic agents.

[4] = system: ZR-75-1 breast carcinoma cells; assay: Mitochondrial transmembrane potential in ZR-75-1 cells; assay type: cell-based, human
Protocol: Analysis of mitochondrial transmembrane potential: Cells were incubated with 0.5 nM 3,3-dihexyloxocarbocyanine iodide (DiOC6[3]; Molecular Probes) for 30 min and analyzed by flow cytometry as described (Shapiro, 2000).
(§1) As a control, stable transfection of ZR-75-1 cells with the empty reterovirus had no effect on MUC1 expression. […] By contrast, CDDP treatment of ZR-75-1/MUC1siRNA cells was associated with a clear loss of ΔΨm. In concert with these findings, cytochrome C release, as measured by immunoblot, was attenuated in CDDP-treated ZR-75-1/vector cells, as compared to ZR-75-1/MUC1siRNA cells. […] Treatment of ZR-75-1/vector cells with CDDP was associated with the induction of approximately 25% apoptosis.

cytochrome c release = assay: Cytochrome c release (immunoblot) in ZR-75-1 cells; assay type: cell-based, human; conditions: ZR-75-1/vector cells compared to ZR-75-1/MUC1siRNA cells
Protocol: Immunoblot analysis: Lysates were prepared from cells as described (Li et al., 2001]. Equal amounts of protein were separated by SDS-PAGE and transferred with anti-cytochrome c (BD PharMingen, San Diego, Calif.). The immunocomplexes were detected with horseradish peroxidase-conjugated secondary antibodies and enhanced chemiluminescence (ECL, Amersham Biosciences, Piscataway, N.J.). Intensity of the signals was determined by densiometric scanning.
as §1

[5] = system: ZR-75-1 breast carcinoma cells; assay: Apoptosis assay (sub-G1 DNA) in ZR-75-1 cells; assay type: cell-based, human
Protocol: Apoptosis assay: Apoptotic cells were quantified by analysis of sub-G1 DNA. Cells were harvested, washed with PBS, fixed with 80% ethanol, and incubated in PBS containing 20 ng/ml RNase (Roche) for 60 min at 37° C. Cells were stained with 40 μg/ml propidium iodide (Sigma) for 30 min at room temperature in the dark. DNA content was analyzed by flow cytometry (EPICS XL-MCL, Coulter Corp.).
as §1

ZR-75-1 tumors = assay: ZR-75-1 tumor growth in nude mice; assay type: in vivo; conditions: 7 mg/Kg CDDP intraperitoneal, FIG. 12
Protocol: FIG. 12: Summary of data showing that MUC1 confers resistance to CDDP in vivo. ZR-75-1/vector cells (∘, ●) or ZR-75-1/MUC1siRNA (¤, ▪) cells (1×10^7) were injected into nude mice that had been pretreated with β-estradiol. The mice were treated as indicated (arrows) with intraperitoneal injections of PBS (¤, ∘) or 7 mg/Kg CDDP (●, ▪). The results are expressed as the tumor volume (mean±S.D>of 4-8 mice per group.
To determine if knocking-down MUC1 affects chemosensitivity in vivo, mice were injected with ZR-75-1 cells stably expressing the empty viral vector or MUCsiRNA.

[6] = system: intrinsic apoptotic pathway; assay: Release of mitochondrial factors and caspase-3 activation in HCT116 transfectants; assay type: cell-based, human
Protocol: Methods. Experimental procedures and methods were as described in Example 15.
(§2) Results. Treatment of cells with DNA-damaging agents is associated with release of mitochondrial cytochrome c and activation of the intrinsic apoptotic pathway. To determine if mitochondrial localization of the MUC1 C-ter affects cytochrome c release, the HCT116 transfectants were treated with cisplatin (CDDP). […] Release of cytochrome c in the response to genotoxic stress is associated with activation of caspase-3 and cleavage of PKCδ (Emoto et al., 1995). To assess the effects of MUC1 on caspase-3 activation, CDDP-treated cells were analyzed for cleavage of pro-caspase-3. […] Smac/DIABLO is a mitochondrial protein that induces caspase-dependent cell death by interacting with inhibitor of apoptosis proteins (IAPs) and blocking their caspase inhibitory activity (Du et al., 2000; Verhagen et al., 2000). To determine if MUC1 attenuates release of Smac/DIABLO, HCT116/vector, HCT116/MUC1 and HCT116/MUC(Y46F) cells were treated with CDDP for 24, 48 and 72 h, and cytosolic lysates were subjected to immunoblot analysis. […] CDDP treatment of HCT116/vector and HCT116/MUC1(Y46F) cells for 72 h was associated with>90% cell death and decreases in the β-actin signals used as a control for loading. By contrast, treatment of HCT116/MUC1 cells with CDDP for 72 h was associated with cessation of cell growth and<30% cell death. These findings indicate that mitochondrial localization of MUC1 C-ter attenuates DNA damage-induced activation of the intrinsic apoptotic pathway.

HCT116 cells [7] = assay: Cell death of HCT116 transfectants; assay type: cell-based, human; conditions: 72 h
Protocol: as §2, with “These findings indicate that mitochondrial localization of MUC1 C-ter attenuates DNA damage-induced activation of the intrinsic apoptotic pathway.” left out

HCT116 cells [8] = assay: Apoptosis (sub-G1 DNA, TUNEL) in HCT116 transfectants; assay type: cell-based, human; conditions: FIG. 15
Protocol: Methods. Apoptotic cells were quantified by analysis of sub-G1 DNA and TUNEL staining. To assess sub-G1 DNA content, cells were harvested, washed with PBS, fixed with 80% ethanol, and incubated in PBS containing 20 ng/ml RNase (Roche) for 60 min at 37° C. Cells were then stained with […] propidium iodide (Sigma) for 30 min at room temperature in the dark. DNA content was analyzed by flow cytometry (EPICS XL-MCL, Coulter Corp.). Apoptotic cells with DNA fragmentation were detected by staining with the In Situ cell death detection kit (TUNEL; Roche Applied Science) and visualized by confocal microscopy (ZEISS LSM510). After staining, cells were analyzed by flow cytometry. Other experimental procedures and methods were as described in Example 15.
Results. To determine if MUC1 affects the induction of apoptosis by CDDP, cells were analyzed for sub-G1 DNA content. […] Stimulation of cell surface death receptors with TNF-α or the TNF-related apoptosis inducing factor TRAIL is associated with activation of the extrinsic apoptotic pathway. To determine if MUC1 affects death receptor-induced apoptosis, HCT116 cells were treated with TNF-α.

MUC1 [9] = conditions: MUC1-positive cells
Protocol: Cell Culture: Human MCF-7 breast carcinoma and HeLa cervical carcinoma cella (obtained form the ATCC, Manassas, Va.) were grown in DMEM (high glucose; Mediatech, Cellgrow) supplemented with 10% heat-inactivated fetal calf serum (FCS) and 2 mM L-glutamate.
(§3) Immunoblot analysis: Cells were lysed in ice-cold lysis buffer (20 mM Tris-HCl, pH 8.0, 150 mM NaCl, 1% Triton-X-100, 1 mM phenylsulfonyl fluoride, 1 mM DTT, 10 μgm/ml aprotinin) for 30 min. Lysates were cleared by centrifugation for 20 min. at 4° C. as described (Yin et al, 2001). Proteins were separated by SDS-PAGE, transferred to nitrocellulose and probed with anti-DF3/MUC1 (Kufe, U.S. Pat. No. 5,506,34) or anti-β-actin (Sigma). The antigen-antibody complexes were visualized by enhanced chemiluminescence (ECL; Amersham Life Sciences).
CDDO downregulates MUC1 expression: MUC1-positive cells were treated with CDDO at concentrations of 1, 3 and 5 μM.

MUC1 transcripts = conditions: MCF-7 cells
Protocol: Reverse transcription-polymerase chain reaction (RT-PCR): Total cellular RNA was extracted in Triazol, dissolved in RNAase-free water and incubated for 10 min. at 55° C. MUC1-specific primers (5′-[sequence]-3′ and 3′-[sequence]-5′) were designed to span a region within the genomic DNA that contains two introns and result in amplification of a 489-bp fragment from RNA and a 783-bp fragment from genomic DNA. RNA-specific primers for human β-actin were used as a control. The RNA was reverse transcribed and amplified using SuperScript One-Step RT-PCR with Platinum Taq (GIBCO-BRL Gaithersburg, Md.). Amplified fragments were analyzed by electrophoresis in 2% agarose gels.
To determine whether MUC1 expression is decreased at the mRNA level , RT-PCR was performed on MCF-7 cells treated with CDDO and the derivatives. […] Whereas CDDO induces apoptosis of diverse cell types, we assessed viability of MCF-7 cells under the same experimental conditions.

intracellular ROS = conditions: MCF-7 cells, compared to control
Protocol: Measurement of ROS levels: Cells were incubated with 10 mM DCF-DA Sigma) for 15 min. at 37° C. to assess ROS-mediated oxidation of the fluorescent compound DCF (LeBel et al., 1992). Fluorescence of oxidized DCF was measured at an excitation wavelength of 480 nm and an emission wavelength of 525 nm using a flow cytometer (Beckton Dickerson, Lincoln Park, N.J.).
As a control, cells were incubated with NAC, a scavenger of ROS.

β-actin = β-actin expression after CDDO; conditions: 5 μM
Protocol: as §3

Compound: C[C@@H]1C[C@@H]([C@H](O)CC2CC(=O)NC(=O)C2)C(=O)[C@@H](C)C1 [CHX, cycloheximide]
- expression of MUC1 C-ter (MUC1 C-ter [1]): no apparent effect

Compound: EGF: EGF (10 ng/ml; Calbiochem-Novabiochem)
- mitochondrial targeting of MUC1 C-ter (MUC1 C-ter [2]): little effect

Compound: [NH2][Pt]([NH2])([Cl])[Cl] [CDDP, cisplatin]
- MUC1 induction by diverse cytotoxic agents (MUC1 [3]): induced
- mitochondrial transmembrane potential (ΔΨm) ([4]; ZR-75-1/MUC1siRNA cells): clear loss
- mitochondrial transmembrane potential (ΔΨm) ([4]; ZR-75-1/vector cells): little if any decrease
- cytochrome C release (immunoblot) (cytochrome c release): attenuated
- apoptosis ([5]; ZR-75-1/MUC1siRNA cells): over 60%
- apoptosis ([5]; ZR-75-1/vector cells): approximately 25%
- sensitivity of tumors to treatment (ZR-75-1 tumors; ZR-75-1/MUC1siRNA tumors): considerably more sensitive
- tumor growth (ZR-75-1 tumors; ZR-75-1/vector tumors): partial slowing
- release of Smac/DIABLO ([6]; 24, 48 and 72 h, HCT116/MUC1 compared to HCT116/vector and HCT116/MUC1(Y46F) cells): attenuated
- CDDP-induced cytochrome c release ([6]; HCT116/MUC1(Y46F) cells): ineffective in blocking
- release of cytochrome c ([6]; HCT116/MUC1 cells): significantly attenuated
- caspase-3-mediated cleavage of PKCδ ([6]; HCT116/MUC1 compared to HCT116/vector and HCT116/MUC1(Y46F) cells): attenuated
- CDDP-induced activation of caspase-3 ([6]; HCT116/MUC1 compared to HCT116/vector cells): attenuates
- release of apoptosis-inducing factor (AIF) ([6]; HCT116/MUC1 compared to vector or MUC1(Y46F) cells): attenuated release
- cytosolic cytochrome c ([6]; HCT116/vector cells): increased levels
- cell death (HCT116 cells [7]; HCT116/MUC1 cells): < 30%
- cell death (HCT116 cells [7]; HCT116/vector and HCT116/MUC1(Y46F) cells): > 90%
- attenuation of CDDP-induced apoptosis (HCT116 cells [8]; HCT116/MUC1(Y46F) cells): not
- CDDP-induced apoptosis (HCT116 cells [8]; HCT116/MUC1 cells): attenuated
- apoptosis (sub-G1 DNA) (HCT116 cells [8]; HCT116/vector cells, 100 μM CDDP for 24 h): approximately 40%

Compound: CC1(C)CC[C@]2(C(=O)O)CC[C@]3(C)[C@H](C(=O)C=C4[C@@]5(C)C=C(C#N)C(=O)C(C)(C)[C@@H]5CC[C@]43C)[C@@H]2C1 [CDDO]
- MUC1 protein (immunoblot) (MUC1 [9]; 5 μM): decreased levels
- MUC1 protein (immunoblot) (MUC1 [9]; 1 or 3 μM at 24 hr): little if any effect
- MUC1 transcripts (RT-PCR) (MUC1 transcripts): decrease
- ROS (oxidation of DCF) (intracellular ROS): detectable increases
- β-actin gene expression (β-actin): no apparent effect
